Read-outs that look alike come from different tables or passages of the source.
What was measured:
[1] = acute toxicity (LD50) in the mouse; details: in vivo
[2] = system: isoproterenol-induced increased contractile force and heart rate; experiment: inhibition of isoproterenol-induced increased contractile force and heart rate in the anesthetized dog; format: in vivo; details: Canis lupus familiaris, intravenous, isoproterenol challenge 0.2 mcg./kg. intravenous
Text: A preferred compound of this invention, 1-(isopropylamino)-3-[4-(methylsulfonyl)-3-tolyloxy]-2-propanol hydrochloride, inhibits increased contractile force and heart rate in the anesthetized dog induced by a standard challenge dose of 0.2 mcg./kg.

[3] = system: β-Adrenergic Receptor; experiment: spontaneously beating rabbit atrial preparation, β-adrenergic receptor antagonist molar potency
Text: (§1) Cardioselective β1 -adrenergic blocking activity of the compounds of the present invention can be assessed in standard in vitro pharmacological test systems such as the spontaneously beating rabbit atrial preparation and the guinea pig tracheal preparation.
(§2) A Comparison of β-Adrenergic Receptor Antagonist Molar
(§3) Potencies Determined in Rabbit Atrial and Guinea
(§4) Pig Tracheal Preparations

[4] = acute toxicity (LD50) in the rat; details: in vivo, po
[5] = system: β-Adrenergic Receptor; experiment: guinea pig tracheal preparation, β-adrenergic receptor antagonist molar potency; details: molar potency relative to propranolol = 1
Text: as §1, §2, §3, §4

[6] = system: spontaneous hypertensive rat; experiment: blood pressure lowering in the spontaneous hypertensive rat; format: in vivo; details: oral dose of 100 mg./kg. body weight
Method: For the purpose of treating hypertension in a mammal, the antihypertensive process of the instant invention is carried out by systemically administering to a mammal in need of such treatment an antihypertensive effective amount of a compound selected from the group characterized by Formula I or preferably by Formula X or a pharmaceutically acceptable non-toxic acid addition salt thereof. By systemic administration, it is intended to include both oral and parenteral routes. Examples of parenteral administration are intramuscular, intravenous, intraperitoneal,rectal, and subcutaneous administration. The dosage will vary with the form of administration and the particular compound chosen. However, from about 0.3 mg. per kg. body weight to 100 mg. per kg. body weight of a compound characterized by Formula I administered in effective single or multiple dosage units is generally satisfactory. In accordance with conventional clinical practice, the antihypertensive agent is administered at a dosage substantially less than the dose of the compound thought to be effective. Thereafter, the dosage is increased by small increments until the optimum antihypertensive effect under the circumstances is reached. At effective antihypertensive dosage levels, the compounds of this invention are substantially free of harmful or deleterious side effects. […]

Row | Compound | LD50 ([1]; ip, read-out: intraperitoneal LD50) [mg/kg] | LD50 ([1]; po, read-out: oral LD50) [mg/kg] | ED50 ([2]; read-out: ED50, inhibition of increased contractile force) [mg/kg] | ED50 ([2]; read-out: ED50, inhibition of increased heart rate) [mg/kg] | Potency Ratio Atria ([3]; molar potency relative to propranolol = 1, rabbit atrial preparation) | Cardioselectivity Ratio: Atria/Trachea ([3]; ratio of potency ratios, rabbit atria / guinea pig trachea) | LD50 [4] [mg/kg] | Potency Ratio Trachea [5] | lowered blood pressure [6]
1 | Cc1cc(OCC(O)CNC(C)C)ccc1S(C)(=O)=O.Cl (stereo not drawn) [1-(ISOPROPYLAMINO)-3-[4-(METHYLSULFONYL)-m-TOLYLOXY]-2-PROPANOL HYDROCHLORIDE] | 339 | 1500 | 0.71 | 2.02 | 0.37 | 37 | 1790 | 0.01 | –
2 | Cc1cc(OCC(O)CNC(C)COc2ccccc2)ccc1S(C)(=O)=O (stereo not drawn) [3-[4-(methylsulfonyl)-m-tolyloxy]-1-(1-phenoxy-2-propylamino)-2-propanol] | – | – | – | – | – | – | – | – | about 22.4 mm Hg
